According to patent US9757408B2 (Hayashibara Co., Ltd., priority 2010, dated 2017):
Marks after values point to notes of the source that are not given here.

Legend:
[1] = tested on: mice with colitis induced by dextran sulfate sodium; assay: Dextran sulfate sodium colitis mice: diarrhea/hematochezia scores, DAI, haptoglobin (Experiment 13); format: in vivo, C57BL/6 mice; conditions: dextran sulfate sodium intake; for Content of haptoglobin: blood on 11th day
Experimental: Dextran sulfate sodium (commercialized by MP Biomedicals, CA, USA, molecular weight of 36,000 to 50,000) was dissolved in tap water, and all the mice of these five groups consisting of eight heads each were allowed to freely take the solution for five days (Experiment groups 2 to 5). […] The eight mice of the remaining one group were administered through a gastric tube with PBS once a day at a dose of 0.2 mL/head over 11 days from the day of initiating the administration of dextran sulfate sodium (Experiment group 2). The five mice of one group, which had not been administered with dextran sulfate sodium, were bred for 11 days on the normal feed while allowing them to take tap water freely (Experiment group 1).
The mice were weighed and their degree of diarrhea and hematochezia were macroscopically observed every day over 11 days from the day of initiating the intake of dextran sulfate sodium. The body weight reduction percentage (%) was determined by dividing the body weight of a mouse at 11th day after initiating the intake of dextran sulfate sodium by the body weight of the mouse at the day of initiating the intake, and multiplying the value by 100, and subtracting the resulting value from 100. The scores of diarrhea and hematochezia and the body weight reduction percentage (%) in each mouse were scored according to the criteria as shown in Table 13. For each group, the average of the total scores of diarrhea and hematochezia on days ranging from the day (intake day 0) of initiating the intake of dextran sulfate sodium to 11th day therefrom (intake day 10) are determined and shown in Table 14. The total scores of diarrhea, hematochezia, and body weight reduction percentage for each mouse at 11th day (intake day 10) after initiating the intake of dextran sulfate sodium are calculated for disease activity index (DAI) used as an index for colitis, averaged for each group, and shown in Table 14. On 11th day after initiating the intake of dextran sulfate sodium, each mouse was collected blood, followed by assaying haptoglobin or an acute phase protein, as an index for inflammatory, on an ELISA kit commercialized by Life Diagnostics USA, and averaging the data for each group. The results are in Table 14 in parallel. Since one mouse in Experiment group 2 administered with only dextran sulfate sodium was dead at 11th day after initiating the intake of dextran sulfate sodium, the results of Experiment group 2 at 11th day (intake day 10) after initiating the intake of dextran sulfate sodium represent the average of seven mice.

[2] = tested on: picryl chloride-sensitized mice; assay: Picryl chloride-sensitized mice atopic dermatitis, skin score (Experiment 16); format: in vivo, NC/Nga mice
Description: (§1) The results are in Table 19 in parallel.

[3] = tested on: IL-5 production of spleen cells; assay: IL-5 production of spleen cells stimulated with anti-CD3 antibody, from gel-treated mice (Experiment 16); format: in vivo, NC/Nga mice
Experimental: (§2) On Friday of the 6th week of the induction (46th day after initiating the application), all the mice were sacrificed, followed by isolating their spleens and collecting spleen cells in usual manner. […] To each well 2 μg/mL of “Purified Mouse CD3ε Monoclonal Antibody”, a product name of an anti-CD3 antibody, commercialized by Cosmo Bio Co., Ltd., Tokyo, Japan, was added, and the cells were incubated at 37° C. for three days in a 5% v/v CO2 incubator, followed by assaying the levels of cytokines in each supernatant thereof.
as §1

[4] = tested on: IL-6 production of spleen cells; assay: IL-6 production of spleen cells stimulated with anti-CD3 antibody, from gel-treated mice (Experiment 16); format: in vivo, NC/Nga mice
Experimental: as §2, §1

[5] = tested on: IFN-γ production of spleen cells; assay: IFN-γ production of spleen cells stimulated with anti-CD3 antibody, from gel-treated mice (Experiment 16); format: in vivo, NC/Nga mice
Experimental: as §2, §1

[6] = tested on: TNF-α production from mouse intraperitoneal macrophages; assay: IC50 for TNF-α production from mouse macrophages, LPS + IFN-γ, nucleic acid derivatives (Experiment 19); format: cell-based; conditions: Mus musculus, Macrophage, 20 h, read-out: IC50 Concentration TNF-α
Description: After completion of the culture, the supernatant in each well was collected and assayed for cytokines and prostaglandin E2 (called “PGE2”, hereinafter) with ELISA.

NHEK cells = assay: Proliferation of NHEK cells irradiated with ultraviolet rays, fluorescent intensity (Experiment 17); format: cell-based, human; conditions: stimulation by ultraviolet rays
Experimental: “CELLMATRIX TYPE IV”, a product name of collagen for tissue culture commercialized by Nitta Gelatin Inc., Osaka, Japan, which had been diluted with PBS(K-) by 10 times, was previously placed in “FALCON 35-3001”, a product name of 35 mm petri dish commercialized by Becton Dickinson and Company, NJ, USA, in an amount of 1 mL/plate, and then allowed to stand at ambient temperature for 10 min, followed by removing an excessive amount of CELLMATRIX, drying the petri dish in air, and washing it thrice with PBS(K-). […] The cells were cultured at 37° C. in a 5% v/v CO2 incubator. On the 2nd and 4th days after the cell inoculation, the medium was replaced with EpiLife medium free of EDGS (1 mL/plate). On the 5th day after the cell inoculation, the supernatant was removed, and the petri dish was washed twice by adding 1 mL/petri dish of Hanks' balanced salt solution (called “HBSS (−) buffer”, hereinafter). Further, 2 mL/petri dish of HBSS (−) buffer was added to the petri dish which was then placed in the position 15 cm apart from an ultraviolet ray light source and irradiated with 40 mJ/cm^2 of ultraviolet B radiation. […] As an ultraviolet ray light source, “NS-8F”, a light source for actual use commercialized by Sanwa Medical Co., Ltd., Okayama, Japan, equipped with an ultraviolet B radiation lamp was used, and the radiation dose was measured on “UVR-305/365D (II)”, an ultraviolet ray meter commercialized by Topcon Corporation, Tokyo, Japan. TNF-α was assayed by the same method as in Experiment 2. The remaining other cytokines were assayed with an IL-1α assay kit, commercialized by R & D Systems Inc., MN, USA, and an IL-8 assay kit commercialized by BioLegend, CA, USA.

[7] = compared to mice applied with gel prepared by adding refined water (Experiment group 1)
[8] = supernatant of spleen cells stimulated with anti-CD3 antibody, picryl chloride-sensitized mice applied with gel

In the case of Nc1c2ncn([C@@H]3O[C@H](CO)[C@@H](O)[C@H]3O)c2nc[n+]1[O-] [ANO, adenosine N1-oxide], the Content of haptoglobin ([1]; 33 mg/kg orally once a day) is reported as 3.7 mg/mL, the “Total scores of diarrhea and hematochezia, day 0” value ([1]; 33 mg/kg orally once a day, day 0 after initiating the intake) is reported as 0 and the “Total scores of diarrhea and hematochezia, day 1” value ([1]; 33 mg/kg orally once a day) is reported as 0. The “Total scores of diarrhea and hematochezia, day 2” value ([1]; 33 mg/kg orally once a day) was 0, the “Total scores of diarrhea and hematochezia, day 3” value ([1]; 33 mg/kg orally once a day) was 0 and the “Total scores of diarrhea and hematochezia, day 4” value ([1]; 33 mg/kg orally once a day) was 0.3. The “Total scores of diarrhea and hematochezia, day 5” value ([1]; 33 mg/kg orally once a day) was 0.3, the “Total scores of diarrhea and hematochezia, day 6” value ([1]; 33 mg/kg orally once a day) was 0.5 and the “Total scores of diarrhea and hematochezia, day 7” value ([1]; 33 mg/kg orally once a day) was 0.6. The “Total scores of diarrhea and hematochezia, day 8” value ([1]; 33 mg/kg orally once a day) was 0.9, the “Total scores of diarrhea and hematochezia, day 9” value ([1]; 33 mg/kg orally once a day) was 0.8 and the “DAI (total scores of diarrhea, hematochezia, and body weight reduction percentage), day 10” value ([1]; 33 mg/kg orally once a day) was 3.8*. The “Total scores of diarrhea and hematochezia, day 10” value ([1]; 33 mg/kg orally once a day) was 0.7, the Content of haptoglobin ([1]; 100 mg/kg orally once a day) was 2.9* mg/mL and the “Total scores of diarrhea and hematochezia, day 0” value ([1]; 100 mg/kg orally once a day, day 0) was 0. For the same compound, the “Total scores of diarrhea and hematochezia, day 1” value ([1]; 100 mg/kg orally once a day) was 0, the “Total scores of diarrhea and hematochezia, day 2” value ([1]; 100 mg/kg orally once a day) was 0 and the “Total scores of diarrhea and hematochezia, day 3” value ([1]; 100 mg/kg orally once a day) was 0.3. The “Total scores of diarrhea and hematochezia, day 4” value ([1]; 100 mg/kg orally once a day) was 0.4, the “Total scores of diarrhea and hematochezia, day 5” value ([1]; 100 mg/kg orally once a day) was 0.4 and the “Total scores of diarrhea and hematochezia, day 6” value ([1]; 100 mg/kg orally once a day) was 0.5. The “Total scores of diarrhea and hematochezia, day 7” value ([1]; 100 mg/kg orally once a day) was 0.6, the “Total scores of diarrhea and hematochezia, day 8” value ([1]; 100 mg/kg orally once a day) was 0.6 and the “Total scores of diarrhea and hematochezia, day 9” value ([1]; 100 mg/kg orally once a day) was 0.7. The “DAI (total scores of diarrhea, hematochezia, and body weight reduction percentage), day 10” value ([1]; 100 mg/kg orally once a day) was 3.4**, the “Total scores of diarrhea and hematochezia, day 10” value ([1]; 100 mg/kg orally once a day) was 0.6 and the “Skin score, 21 days after the day of sensitizing with picryl chloride” value ([2]; gel on dorsal skin twice a day (ANO 14 mg/mL, AN or IN 13 mg/mL, prednisolone 6.7 mg/mL from 3rd induction week), day 21) was 0.75. The “Skin score, 24 days after the day of sensitizing with picryl chloride” value ([2]; gel on dorsal skin twice a day (ANO 14 mg/mL, AN or IN 13 mg/mL, prednisolone 6.7 mg/mL), day 24) was 1.00, the “Skin score, 28 days after the day of sensitizing with picryl chloride” value ([2]; gel on dorsal skin twice a day (ANO 14 mg/mL, AN or IN 13 mg/mL, prednisolone 6.7 mg/mL), day 28) was 2.25 and the “Skin score, 31 days after the day of sensitizing with picryl chloride” value ([2]; gel on dorsal skin twice a day (ANO 14 mg/mL, AN or IN 13 mg/mL, prednisolone 6.7 mg/mL), day 31) was 3.38. For the same compound, the “Skin score, 35 days after the day of sensitizing with picryl chloride” value ([2]; gel on dorsal skin twice a day (ANO 14 mg/mL, AN or IN 13 mg/mL, prednisolone 6.7 mg/mL), day 35) was 4.50, the “Skin score, 39 days after the day of sensitizing with picryl chloride” value ([2]; gel on dorsal skin twice a day (ANO 14 mg/mL, AN or IN 13 mg/mL, prednisolone 6.7 mg/mL), day 39) was 3.58* and the “Skin score, 42 days after the day of sensitizing with picryl chloride” value ([2]; gel on dorsal skin twice a day (ANO 14 mg/mL, AN or IN 13 mg/mL, prednisolone 6.7 mg/mL), day 42) was 4.38*. For the same compound, the “Skin score, 45 days after the day of sensitizing with picryl chloride” value ([2]; gel on dorsal skin twice a day (ANO 14 mg/mL, AN or IN 13 mg/mL, prednisolone 6.7 mg/mL), day 45) was 3.63*, the “recovery of skin wounds in the inflammation-induced part” value ([2]; picryl chloride-sensitized NC/Nga mice, gel application) was “cure/improvement of wounds induced by inflammation was observed” and the “production level of IL-5 of spleen cells stimulated with the anti-CD3 antibody” value [3, 7] was “tended to decrease”. The “Content of IL-5” value [3, 8] was 157 ng/mL, the “production level of IL-6 of spleen cells stimulated with the anti-CD3 antibody” value [4, 7] was “significantly lower” and the “Content of IL-6” value [4, 8] was 129* ng/mL. For the same compound, the “production level of IFN-γ of spleen cells stimulated with the anti-CD3 antibody” value [5, 7] was “significantly lower”, the “Content of IFN-γ” value [5, 8] was 8.75* pg/mL and the IC50 [6] was 300 nM. For the same compound, the Proliferation (NHEK cells; 1 μM) was 5540 Fluorescent intensity, the Proliferation (NHEK cells; 5 μM) was 5607 Fluorescent intensity and the Proliferation (NHEK cells; 10 μM) was 5682 Fluorescent intensity.
